# Reference: patent US11230570B2, “Peptide for regulating reactivity to serotonin reuptake inhibitor based antidepressant, and use thereof” (DAEGU GYEONGBUK INSTITUTE OF SCIENCE AND TECHNOLOGY, priority 2018, dated 2022)
# Where a name gives a salt, the structure may show the parent alone. No end group written: not given here.
# Key:
# [1] = tested on: mossy cells; test: Electrophysiological recording of hippocampal mossy cells in brain slices; type: cell-based, mouse; conditions: for activity of mossy cells: CNO perfused on slices
# Description: Electrophysiological Evaluation of Hippocampal Mossy Cells […] To label and visualize mossy cells in hippocampal slices, a recombinant AAV vector (AAV2.EF1α.DIO.AcGFP1-myc) was bilaterally injected into the dentate hilus of the ventral hippocampus in […]. AcGFP1 was selectively expressed in the mossy cells. While recording the electrophysiological evaluation, the morphology, membrane capacitance and electrophysiological properties of the mossy cells were further confirmed. (2) Preparation of Slices 12-15-week male mice were euthanized with CO2. Subsequently, their brains were extracted and placed in an N-Methyl-D-glucamine-containing cutting solution (93 mM NMDG, 2.5 mM KCl, 1.2 mM NaH2PO4, 30 mM NaHCO3, 25 mM glucose, 20 mM HEPES, 5 mM sodium ascorbate, 3 mM sodium pyruvate, 2 mM thiourea, 0.5 mM CaCl2), 10 mM MgSO4. pH 7.4, 295-305 mM mOsm) on cold ice. The brain tissue slices (400-μm thickness) containing the ventral hippocampus were prepared using a VT1000 S Vibratome (Leica Microsystems Inc., Buffalo Grove, Ill., USA). After cutting, slices were allowed to recover in the cutting solution at 37° C. for 15 minutes, and then transferred to a recording solution at room temperature for at least 1 hour before recording of the electrophysiological evaluation. (3) Electrophysiological Recording Electrophysiological recordings were performed as described above. During recording, brain slices were placed in a perfusion chamber attached to a fixed stage of an upright microscope BX51WI (Olympus, Tokyo, Japan), and immersed in a continuously flowing oxygenated recording solution. Components contained in the solution are as follows: 125 mM NaCl, 25 mM NaHCO3, 25 mM glucose, 2.5 mM KCl, 1.25 mM NaH2PO4, 2 mM CaCl2) and 1 mM MgCl2, pH 7.4, 295-305 mM mOsm. Neurons were visualized with a 40× water immersion lens using near infrared (IR) light. Electrophysiological recording was performed using a Multiclamp 700B/Digidata 1440A system (Molecular Devices, Sunnyvale, Calif., USA). Patch electrodes were filled with an internal solution (126 mM K-gluconate, 10 mM KCl, 10 mM HEPES, 10 mM phosphocreatine, 4 mM ATP and 0.3 mM GTP, pH 7.3, 290 mM mOsmol). Whole-cell patch-clamp recordings were used to record spontaneous action potentials of mossy cells in the hippocampal slides, and all recording was performed at 37° C. […] In addition, CNO (1 mM) was perfused on the brain tissue slices to confirm the effect of Gi-DREADD. Experimental data was analyzed by pClamp10 software (Molecular Devices) and GraphPad Prism 6 (GraphPad Software, La Jolla, Calif., USA).
# [2] = tested on: mice; test: Novelty suppressed feeding test (NSF/NFS); type: in vivo, mouse; conditions: in s (unit assumed); for NSF test latency: CNO 0.3 mg/kg
# Protocol: For chronic drug administration, 2 to 5 mice were housed in each cage. Fluoxetine hydrochloride (Spectrum Chemicals, USA) was intraperitoneally injected (10 mg kg-1 day-1) daily for 3 weeks. The drug was prepared by being dissolved in dimethyl sulfoxide (50%), and diluted with saline. For a control, a drug-free vehicle solution (0.9% saline) was administered daily. For a Gi-DREADD mouse experiment, clozapine-N-oxide (CNO; Sigma-Aldrich, USA) was directly dissolved in a 0.9% saline solution. A dose of CNO was 0.3 mg/kg, and 2 hours before each behavioral test, 100 μl/10 g of a solution per body weight was intraperitoneally injected.
# (4) Novelty Suppressed Feeding Test (NSF)
# (§1) The test was carried out for 15 minutes by partially changing a conventional method. 24 hours before behavioral testing, all food provided to the home cage was removed. […], a single 1.8-cm square-shaped food pellet was placed on a white filter paper positioned in the center of the test box. The mouse was placed in the corner of an open field, and a stopwatch was immediately operated. The latency to first bite food was recorded. Immediately after the test, the mice were placed in the home cage, and the amount of food intake was measured for 10 minutes.
# [3] = tested on: mice; test: Home cage feeding (HCF) test; type: in vivo, mouse; conditions: for home cage feeding level: control AcGFP1 and PASIP-AcGFP1 mice, chronic fluoxetine
# Protocol: as §1
# [4] = tested on: BrdU+ proliferating cells in the subgranular zone of the dentate gyrus; test: BrdU labeling and neurogenic analysis; type: in vivo, mouse
# Protocol: 1-8. BrdU Labeling and Neurogenic Analysis
# Before the mice were sacrificed, a BrdU solution (200 mg/kg) was intraperitoneally administered for 3 hours. After transcardial perfusion, brain tissue was fixed with 4% PFA overnight, coronal sections with a 40-μm thickness were collected along the hippocampal rostro-caudal axis using a cryostat (CM3050S, Leica). The sections were processed using a free-floating method. Every sixth section throughout the hippocampus was subjected to BrdU immunohistochemical staining. Afterward, sections were pre-incubated with 1M HCl at 45° C. for 30 minutes to denature DNA, and washed three times with 0.1M PBS for neutralization. Immunohistochemistry was performed with α-BrdU (rat polyclonal, 1:200, Abcam, Cambridge, Mass., USA) and Alexa-Fluor™-conjugated secondary antibodies (1:400, Life Technologies, USA). A tester who was not given information on a slide code counted BrdU-labeled cells in the granule cell layer (GCL) and the subgranular zone (SGZ) of the dentate gyrus (DG) in the total of 12 sections derived from individual mice. The total number of BrdU-labeled cells per section was determined and multiplied by 6 to obtain the total number of cells per dentate gyrus.
# [5] = tested on: mice; test: Tail suspension test (TST); type: in vivo, mouse; conditions: for inactivity (immobility) in TST: in s (unit assumed)
# Protocol: (5) Tail Suspension Test (TST) Mice were suspended by tails for 6 minutes. A test session was videotaped, and their immobility was scored using automated TST analysis software of Clever System (Reston, Va., USA). The immobility time during the last 4 minutes (excluding the initial 2 minutes) was calculated.
# [6] = tested on: newborn postmitotic cells (DCX); test: Doublecortin (DCX) immunostaining of immature neurons; type: in vivo, mouse; conditions: chronic fluoxetine administration, control mice
# Protocol: 1-7. Immunohistochemistry
# Immunostaining was carried out using the standard free-floating method. Sections were washed three times with PBS for 10 minutes each time, and incubated with 2% normal donkey serum, 0.2% bovine serum albumin and 0.3% Triton-X100. After blocking, the sections were incubated with primary antibodies diluted with a blocking buffer overnight at 4° C., the following primary antibodies were used: α-doublecortin (goat polyclonal, 1:200, Santa Cruz Biotech.), α-calretinin (mouse monoclonal, 1:500, SWANT), α-parvalbumin (rabbit polyclonal, 1:1000, SWANT), α-neuropeptide Y (rabbit polyclonal, 1:1000, Phoenix Pharmaceutical), α-GluR2/3 (rabbit polyclonal, 1:100, Millipore). After incubation for 24 hours, the sections were washed three times with PBS containing 0.2% Triton-X100 (PBS-T) for 10 minutes, and then incubated with Alexa-Fluor™-conjugated secondary antibodies (1:400, Life Technologies, USA) at room temperature for 3 hours. The sections were washed three times with PBS-T at room temperature for 10 minutes, and covered with a Prolong™ Gold, anti-fading mounting medium (Life Technologies, USA).
# [7] = biological target: T1, p11/AnxA2/SMARCA3 complex (Homo sapiens, UniProt P07355+P60903); test: Immunoprecipitation of p11/AnxA2/SMARCA3 complex in HEK293 cells; type: binding; conditions: in vitro immunoprecipitation with α-SMARCA3, HEK293 cells
# T1 construct: endogenous in cells; host or cells: HEK293 (CRL-1573, ATCC)
# T1 sequence (P60903 whole entry): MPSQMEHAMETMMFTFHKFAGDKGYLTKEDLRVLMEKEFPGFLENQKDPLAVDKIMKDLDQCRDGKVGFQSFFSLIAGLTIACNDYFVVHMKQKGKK
# T1 sequence (P07355 2-339 limits assumed): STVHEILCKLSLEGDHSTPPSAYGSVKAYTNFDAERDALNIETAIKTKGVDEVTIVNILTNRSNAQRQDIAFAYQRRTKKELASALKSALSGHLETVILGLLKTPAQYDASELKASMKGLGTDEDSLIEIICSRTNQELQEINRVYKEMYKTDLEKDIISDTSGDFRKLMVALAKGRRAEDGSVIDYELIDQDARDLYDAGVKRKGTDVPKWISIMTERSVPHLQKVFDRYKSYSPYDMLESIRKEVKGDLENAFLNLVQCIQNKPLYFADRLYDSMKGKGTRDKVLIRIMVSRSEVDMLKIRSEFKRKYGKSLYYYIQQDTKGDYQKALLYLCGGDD
# Protocol: 1-4. Immunoprecipitation of p11/AnxA2/SMARCA3 Complex
# HEK293 cells (CRL-1573, ATCC) were transfected with a CMV-Cre plasmid, and 24 hours after transfection, transfected with an AAV vector expressing the control AcGFP1 or PASIP-AcGFP1 construct. Immunoprecipitation was performed with α-SMARCA3 antibodies (rabbit polyclonal antibodies prepared with immunized peptides). Immunoblotting was performed using the following antibodies according to a standard protocol: α-p11 (mouse monoclonal, 1:1000, BD Biosciences), α-p11 (goat polyclonal, 1:200, R&D Systems), α-SMARCA3 (goat polyclonal, 1:200, NOVUS), α-AnxA2 (mouse monoclonal, Santa Cruz Biotech.), α-GFP (goat polyclonal, Santa Cruz Biotech).
# [8] = tested on: mice; test: Light and dark box test; type: in vivo, mouse; conditions: PASIP-AcGFP1 mice vs control AcGFP1 154±16; p<0.01
# Protocol: (3) Light and Dark Box Test (LD Box)
# Mice were placed in an open field area (40×40×40 cm). A black box was inserted into the open field. The mice were placed into light compartments at the beginning of a session, and allowed to freely move between the compartments for 10 minutes. The time spent in each compartment and the latency to first enter the dark compartment were measured using automated Superflex™ software.
compound,measurement,setting,value
"C[N+]1([O-])CCN(C2=Nc3cc(Cl)ccc3Nc3ccccc32)CC1 [CNO, clozapine-N-oxide]",activity of mossy cells,"[1]; Gi-DREADD mice, mCherry-labeled mossy cells",silenced
same,activity of mossy cells,[1]; control mCherry mice,not in control mice
"CNCCC(Oc1ccc(C(F)(F)F)cc1)c1ccccc1 (stereo not shown) [FLX, Fluoxetine hydrochloride]",NSF test latency,"[2]; Gi-DREADD mice, chronic FLX (SAL 450±36)",365±40
same,latency to access a food pellet,"[2]; Smarca3f/f control mice (D2-Cre experiment), chronic FLX (SAL 257±47)",104±12
same,latency to access a food pellet,"[2]; Smarca3f/f control mice (MC-Cre experiment), chronic FLX (SAL 338±20)",229±40
same,latency to access a food pellet,"[2]; Smarca3f/f;D2-Cre conditional knockout mice, chronic FLX (SAL 192±15)",232±32
same,latency to access a food pellet,"[2]; Smarca3f/f;MC-Cre conditional knockout mice, chronic FLX (SAL 405±88)",404±69
same,NSF test latency,"[2]; control (mCherry) mice, chronic FLX (SAL 484±85)",238±40
same,latency to feed,"[2]; control AcGFP1 mice, chronic fluoxetine (SAL 296±48)",147±22
same,latency to access a food pellet,"[2]; p11f/f control mice, chronic FLX 10 mg/kg/day i.p. 3 weeks (SAL 351±38)",165±24
same,latency to access a food pellet,"[2]; p11f/f;D2-Cre conditional knockout mice, chronic FLX (SAL 364±46)",296±58
same,home cage feeding level,[3],did not have a significant influence
same,food intake after coming back to the home cage,"[3]; control and p11 / Smarca3 cKO mice, chronic SSRI",no change in food intake
same,number of BrdU+ proliferating cells in the subgranular zone,"[4]; Gi-DREADD mice, chronic FLX (SAL 172±27)",232±20
same,number of BrdU+ proliferating cells in the subgranular zone,"[4]; control (mCherry) D2-Cre mice, chronic FLX (SAL 177±18)",337±37
same,BrdU+ proliferating cells,"[4]; control mice, chronic fluoxetine (SAL 173±16)",290±43
same,inactivity (immobility) in TST,"[5]; Gi-DREADD mice, chronic FLX (SAL 128±9)",129±10
same,inactivity (immobility) in TST,"[5]; control (mCherry) mice, chronic FLX (SAL 141±9)",110±9
same,mossy cell activity (spontaneous firing rate),[1]; acute fluoxetine treatment,had no effect on mossy cell activity
same,spontaneous firing rate of mossy cells,[1]; chronic fluoxetine treatment (control 2.36±0.41 Hz),4.19±0.92 Hz
same,survival and differentiation of newborn neuronal progenitors (DCX expression),[6],enhanced the survival of newborn neuronal progenitors and promoted differentiation into mature neurons
"PASIP-AcGFP1: p11/AnxA2/SMARCA3 complex inhibitory peptide-AcGFP1 fusion construct, expressed from a Cre-dependent AAV vector (GNGNGKVTFPKMKIPKFSGR; also: fused to AcGFP1)",latency to feed,"[2]; PASIP-AcGFP1 mice, SAL",304±51
same,latency to feed,"[2]; PASIP-AcGFP1 mice, chronic FLX",293±54
same,home cage feeding level,[3],did not have a significant influence
same,assembly of the p11/AnxA2/SMARCA3 complex,[7],able to block the assembly of the p11/AnxA2/SMARCA3 complex
same,BrdU+ proliferating cells,"[4]; PASIP-AcGFP1 mice (AAV, mossy cells), SAL",119±27
same,BrdU+ proliferating cells,"[4]; PASIP-AcGFP1 mice (AAV, mossy cells), chronic FLX",129±13
same,light/dark box test,[8],94±13
same,effect of fluoxetine in tail-suspension test,"[5]; PASIP-AcGFP1 mice, chronic fluoxetine",reduced an effect caused by fluoxetine administration
same,firing rate of mossy cells,[1]; mossy cells expressing construct (control AcGFP1 3.58±0.56 Hz),0.64±0.10 Hz
same,resting membrane potential in mossy cells,[1]; mossy cells expressing construct (control AcGFP1 −47.33±1.77 mV),−54.33±1.32 mV
